This is an account of results in US20030036562A1, “Water-soluble dendrimeric fullerene as anti-HIV therapeutic” (priority 2001, published 2003).

Read-outs that look alike come from different tables or passages of the source.

In series [1] the target is T1, recombinant HIV-1 p66/51 reverse transcriptase (Human immunodeficiency virus type 1 group M subtype B, UniProt P04585).
T1 construct: recombinant HIV-1 p66/51 reverse transcriptase
The experiment in a line: Inhibition of p66/51 reverse transcriptase. In kind it is biochemical.

The target in series [2] is RT (Human immunodeficiency virus type 1 group M subtype B, UniProt P04585). Conditions: FDA-approved drugs; cited from earlier work.
Series [3] concerns Vero cells. Conditions: cited from earlier work.
For series [4], the system named is M184V (3TC resistant). Conditions: cited from earlier work.
For series [5], the system named is H9 cells. Conditions: cited from earlier work.
For series [6], the system named is CEM (human lymphoblastoid) cells. Conditions: cited from earlier work.
The subject of series [7] is HIV-1 (wild type). Conditions: FDA-approved drugs; cited from earlier work.
Series [8] deals with T2, Protease (Human immunodeficiency virus type 1 group M subtype B, UniProt P04585).
T2 construct: Protease
Conditions: FDA-approved drugs; cited from earlier work.

The conditions of series [9]: in vivo; cited from earlier work.
The conditions of series [10]: cited from earlier work.
Series [11] deals with Anti-C60. Conditions: measured inhibition of bovine thyroglobulin-fullerene conjugate binding by test compound; cited from earlier work.
The mark [12] stands for this setting: M184V, common RT mutant, FDA-approved drugs, read-out: EC50.

`Cc1cn([C@H]2C[C@H](N=[N+]=[N-])[C@@H](CO[P@](=O)(O)O[P@](=O)(O)OP(=O)(O)O)O2)c(=O)[nH]c1=O` [AZTTP]: the inhibition at 0.001 µM in [1] (0.001 μM) stood at 8%. The inhibition at 0.01 µM in series [1] (0.01 μM) came to 35.7%. Further, in [1] (0.1 μM), the inhibition at 0.1 µM turned out to be 72.7%. The inhibition at 1 µM in [1] (1 μM) amounted to 97%. The inhibition at 10 µM in series [1] (10 μM) worked out at 99.6%. Besides, the “1C 90” value in series [1] (p66/51 1 unit/rxn, (rA)n.(dT)12-18) was found to be 0.27 µM. For the same compound, the IC50 in series [1] (p66/51 1 unit/rxn, (rA)n.(dT)12-18, read-out: 1C 50) was 0.021 µM.
In the case of `Cc1cn([C@H]2C[C@H](N=[N+]=[N-])[C@@H](CO)O2)c(=O)[nH]c1=O` [AZT], in series [2], the “RT Inhibitor” value is on record as “yes”. Moreover, the “cytotoxicity (in words)” value in series [3], in series [5] and in series [6] was “cytotoxic” each time. Besides, the EC50 is 0.01 µM in series [4] (setting [12]) and 0.05 µM in series [7]. Besides, the IC50 in [1] (poly (rA)n oligo (dT)12 template primer, text b87, unit inferred, read-out: IC50 against RT) turned out to be 0.021 µM.
In the case of `CC(C)CN(C[C@@H](O)[C@H](Cc1ccccc1)NC(=O)O[C@H]1CCOC1)S(=O)(=O)c1ccc(N)cc1` [Amprenavir], the “Protease Inhibitor” value in series [8] is listed as “yes”. The values for the EC50 in series [4] (setting [12]) and in [7] were 0.5 µM and 0.054 µM, respectively.
As for `Nc1ccn([C@@H]2CS[C@H](CO)O2)c(=O)n1` [Compound 3TC, 3TC], the EC50 was greater than 100 µM in series [4] (setting [12]); greater than 100 µM in series [4] (text b84, unit inferred, read-out: activity against M184V); 0.18 µM in series [7].
Take `CC(C)(C)NC(=O)[C@@H]1CN(Cc2cccnc2)CCN1C[C@@H](O)C[C@@H](Cc1ccccc1)C(=O)N[C@H]1c2ccccc2C[C@H]1O` [Indinavir]: in series [8], the “Protease Inhibitor” value is listed as “yes”. In addition, the EC50 in series [7] is roughly 0.1 µM.
For `Cc1c(O)cccc1C(=O)N[C@@H](CSc1ccccc1)[C@H](O)CN1C[C@H]2CCCC[C@H]2C[C@H]1C(=O)NC(C)(C)C` [Nelfinavir], the “Oral Bioavailability” value in series [9] is 52%. Moreover, the “Protease Inhibitor” value in series [8] was “yes”. The EC50 in series [4] (setting [12]) was 0.4 µM.
For the compound `CC(C)c1nc(CN(C)C(=O)N[C@H](C(=O)N[C@@H](Cc2ccccc2)C[C@H](O)[C@H](Cc2ccccc2)NC(=O)OCc2cncs2)C(C)C)cs1` [Ritonavir], in [9], the “Oral Bioavailability” value was “˜78%”. For the same compound, the “Protease Inhibitor” value in series [8] is reported as “yes”. For the same compound, the EC50 in series [4] (setting [12]) is 0.8 µM; in series [7], 0.045 µM.
With `CC(C)(C)NC(=O)[C@@H]1C[C@@H]2CCCC[C@@H]2CN1C[C@@H](O)[C@H](Cc1ccccc1)NC(=O)[C@H](CC(N)=O)NC(=O)c1ccc2ccccc2n1` [Saquinavir], the “Oral Bioavailability” value in [9] was “˜4%”. The “Protease Inhibitor” value in series [8] is “yes”.
For `c12c3c4c5c1c1c6c7c2c2c8c3c3c9c4c4c%10c5c5c1c1c6c6c%11c7c2c2c7c8c3c3c8c9c4c4c9c%10c5c5c1c1c6c6c%11c2c2c7c3c3c8c4c4c9c5c1c1c6c2c3c41` [unmodified C60, C60], the “toxicity in vivo (in words)” value in series [10] is “non toxic even at high doses”.
For C3-carboxyfullerene, the Kd in [11] was 250 µg/mL.
With D3-carboxyfullerene, the Kd in series [11] is 38 µg/mL.
On to fullerenol [C], for which the Kd in [11] was 750 µg/mL.

Broadly, the inhibition is the percentage by which the read-out fell short of the control. As usually defined, the Kd is the constant that tells how readily two partners part at equilibrium.
